According to PubChem BioAssay (NCI):
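In this assay, cells in 96-well plates receive the compound at five concentrations for 48 hours. Endpoints are linearly interpolated between the surrounding concentrations. Here, GI50 denotes the concentration required for 50% inhibition of growth. TGI denotes the concentration required for complete inhibition of growth.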

Columns and labels:
Test in all cases: inhibition of tumour cell growth, NCI panel, 48 h
[1] = system: U251 CNS
[2] = system: MDA-MB-435
[3] = system: SF-539 CNS
[4] = system: SK-MEL-5 melanoma
[5] = system: COLO 205 colon
[6] = system: SK-MEL-28 melanoma
[7] = system: SF-295 CNS
[8] = system: T-47D breast
[9] = system: M14 melanoma
[10] = system: OVCAR-8 ovarian
[11] = system: MOLT-4 leukemia
[12] = system: RXF 393 renal
[13] = system: A498 renal
[14] = system: SW-620 colon
[15] = system: RPMI-8226 leukemia
[16] = system: BT-549 breast
[17] = system: SNB-75 CNS
[18] = system: HL-60(TB) leukemia
[19] = system: UACC-257 melanoma
[20] = system: HS 578T breast
[21] = system: HCT-116 colon
[22] = system: NCI-H460 lung
[23] = system: MDA-MB-231 breast
[24] = system: LOX IMVI melanoma
[25] = system: PC-3 prostate
[26] = system: CCRF-CEM leukemia
[27] = system: OVCAR-5 ovarian
[28] = system: 786-0 renal
[29] = system: HOP-62 NSCLC
[30] = system: SR leukemia
[31] = system: HCT-15 colon
[32] = system: TK-10 renal
[33] = system: NCI/ADR-RES ovarian
[34] = system: HCC-2998 colon
[35] = system: IGROV1 ovarian
[36] = system: EKVX NSCLC
[37] = system: SN12C renal
[38] = system: NCI-H522 lung
[39] = system: MCF7 breast
[40] = system: KM12 colon
[41] = system: UACC-62 melanoma
[42] = system: CAKI-1 renal
[43] = system: HT29 colon
[44] = system: ACHN renal
[45] = system: NCI-H226 lung
[46] = system: SK-MEL-2 melanoma
[47] = system: SF-268 CNS
[48] = system: OVCAR-3 ovarian
[49] = system: OVCAR-4 ovarian
[50] = system: SK-OV-3 ovarian
[51] = system: HOP-92 NSCLC
[52] = system: UO-31 renal
[53] = system: A549 NSCLC
[54] = system: MALME-3M melanoma
[55] = system: DU-145 prostate
[56] = system: SNB-19 CNS
[57] = system: NCI-H23 lung
[58] = system: K-562 leukemia

SMILES: CC1(/C=C/c2ccc(-c3ccccc3)cc2)CCn2cnc3ncnc(c32)N1O (configuration not stated)
- GI50 [1]: 0.418 µM
- TGI [1]: 22 µM
- GI50 [2]: 0.646 µM
- TGI [2]: 39.6 µM
- GI50 [3]: 0.388 µM
- TGI [3]: 5.55 µM
- GI50 [4]: 0.324 µM
- TGI [4]: 2.75 µM
- GI50 [5]: 0.326 µM
- TGI [5]: 32.8 µM
- GI50 [6]: 0.656 µM
- TGI [6]: 20 µM
- GI50 [7]: 0.419 µM
- TGI [7]: 17.1 µM
- GI50 [8]: 0.462 µM
- TGI [8]: 54.3 µM
- GI50 [9]: 0.265 µM
- TGI [9]: 2.49 µM
- GI50 [10]: 0.419 µM
- TGI [10]: > 55.1 µM
- GI50 [11]: 0.347 µM
- TGI [11]: 27.9 µM
- GI50 [12]: 0.88 µM
- TGI [12]: 40.3 µM
- GI50 [13]: 0.0387 µM
- TGI [13]: 3.99 µM
- GI50 [14]: 0.529 µM
- TGI [14]: 24.6 µM
- GI50 [15]: 0.467 µM
- TGI [15]: 22.7 µM
- GI50 [16]: 0.495 µM
- TGI [16]: 16.9 µM
- GI50 [17]: 0.387 µM
- TGI [17]: 14.5 µM
- GI50 [18]: 0.318 µM
- TGI [18]: 1.81 µM
- GI50 [19]: 0.445 µM
- TGI [19]: 25.3 µM
- GI50 [20]: 3.37 µM
- TGI [20]: 30.9 µM
- GI50 [21]: 0.358 µM
- TGI [21]: 18.6 µM
- GI50 [22]: 0.264 µM
- TGI [22]: 8.25 µM
- GI50 [23]: 0.509 µM
- TGI [23]: 63.2 µM
- GI50 [24]: 0.302 µM
- TGI [24]: 21.6 µM
- GI50 [25]: 0.57 µM
- TGI [25]: 34.8 µM
- GI50 [26]: 0.153 µM
- TGI [26]: 41.5 µM
- GI50 [27]: 0.623 µM
- TGI [27]: 58.7 µM
- GI50 [28]: 0.259 µM
- TGI [28]: 4.49 µM
- GI50 [29]: 0.366 µM
- TGI [29]: 16.4 µM
- GI50 [30]: 0.31 µM
- TGI [30]: > 100 µM
- GI50 [31]: 0.146 µM
- TGI [31]: 33.5 µM
- GI50 [32]: 0.492 µM
- TGI [32]: > 100 µM
- GI50 [33]: 0.348 µM
- TGI [33]: 28.7 µM
- GI50 [34]: 0.409 µM
- TGI [34]: 34.6 µM
- GI50 [35]: 0.337 µM
- TGI [35]: 14.1 µM
- GI50 [36]: 0.305 µM
- TGI [36]: > 100 µM
- GI50 [37]: 0.508 µM
- TGI [37]: 40.7 µM
- GI50 [38]: 0.521 µM
- TGI [38]: 34 µM
- GI50 [39]: 0.342 µM
- TGI [39]: > 69.4 µM
- GI50 [40]: 0.415 µM
- TGI [40]: 23.1 µM
- GI50 [41]: 0.356 µM
- TGI [41]: 2.27 µM
- GI50 [42]: 0.327 µM
- TGI [42]: 12.2 µM
- GI50 [43]: 0.526 µM
- TGI [43]: 41.7 µM
- GI50 [44]: 0.281 µM
- TGI [44]: 14.2 µM
- GI50 [45]: 0.571 µM
- TGI [45]: 20.2 µM
- GI50 [46]: 1.42 µM
- TGI [46]: 41.2 µM
- GI50 [47]: 0.405 µM
- TGI [47]: 15.8 µM
- GI50 [48]: 0.425 µM
- TGI [48]: 20.7 µM
- GI50 [49]: 0.298 µM
- TGI [49]: > 50.2 µM
- GI50 [50]: 0.434 µM
- TGI [50]: 20.4 µM
- GI50 [51]: 3.72 µM
- TGI [51]: 65.6 µM
- GI50 [52]: 0.162 µM
- TGI [52]: 1.2 µM
- GI50 [53]: 0.466 µM
- TGI [53]: 23.5 µM
- GI50 [54]: 0.412 µM
- TGI [54]: 14.7 µM
- GI50 [55]: 0.53 µM
- TGI [55]: > 56.7 µM
- GI50 [56]: 0.526 µM
- TGI [56]: > 72.6 µM
- GI50 [57]: 0.635 µM
- TGI [57]: 27.3 µM
- GI50 [58]: 0.359 µM
- TGI [58]: > 66.7 µM

SMILES: COc1ccc(COc2ccc(Cc3cnc(N)nc3N)cc2OC)cc1
- GI50 [1]: 21.4 µM
- TGI [1]: > 25 µM
- GI50 [2]: > 25 µM
- TGI [2]: > 25 µM
- GI50 [3]: > 25 µM
- TGI [3]: > 25 µM
- GI50 [4]: 3.43 µM
- TGI [4]: 7.66 µM
- GI50 [5]: 4.27 µM
- TGI [5]: 8.15 µM
- GI50 [6]: 24.8 µM
- TGI [6]: > 25 µM
- GI50 [7]: 10.4 µM
- TGI [7]: > 25 µM
- GI50 [8]: 7.08 µM
- TGI [8]: > 25 µM
- GI50 [9]: > 25 µM
- TGI [9]: > 25 µM
- GI50 [10]: > 25 µM
- TGI [10]: > 25 µM
- GI50 [11]: > 25 µM
- TGI [11]: > 25 µM
- GI50 [12]: 8.21 µM
- TGI [12]: > 25 µM
- GI50 [13]: 2.27 µM
- TGI [13]: > 25 µM
- GI50 [14]: > 25 µM
- TGI [14]: > 25 µM
- GI50 [15]: > 19.9 µM
- TGI [15]: > 25 µM
- GI50 [16]: 12.1 µM
- TGI [16]: > 25 µM
- GI50 [17]: 8.09 µM
- TGI [17]: > 25 µM
- GI50 [18]: > 20.6 µM
- TGI [18]: > 25 µM
- GI50 [19]: 8.48 µM
- TGI [19]: > 25 µM
- GI50 [20]: > 23.4 µM
- TGI [20]: > 25 µM
- GI50 [21]: 14.6 µM
- TGI [21]: > 25 µM
- GI50 [22]: > 22.1 µM
- TGI [22]: > 25 µM
- GI50 [23]: 23.1 µM
- TGI [23]: > 25 µM
- GI50 [24]: > 25 µM
- TGI [24]: > 25 µM
- GI50 [25]: > 22.4 µM
- TGI [25]: > 25 µM
- GI50 [26]: > 25 µM
- TGI [26]: > 25 µM
- GI50 [27]: > 25 µM
- TGI [27]: > 25 µM
- GI50 [28]: > 25 µM
- TGI [28]: > 25 µM
- GI50 [29]: > 18.4 µM
- TGI [29]: > 25 µM
- GI50 [30]: 24.3 µM
- TGI [30]: > 25 µM
- GI50 [31]: > 23.7 µM
- TGI [31]: > 25 µM
- GI50 [32]: > 25 µM
- TGI [32]: > 25 µM
- GI50 [33]: > 19 µM
- TGI [33]: > 25 µM
- GI50 [34]: > 25 µM
- TGI [34]: > 25 µM
- GI50 [35]: > 25 µM
- TGI [35]: > 25 µM
- GI50 [36]: > 16.2 µM
- TGI [36]: > 25 µM
- GI50 [37]: > 25 µM
- TGI [37]: > 25 µM
- GI50 [38]: > 25 µM
- TGI [38]: > 25 µM
- GI50 [39]: 11.7 µM
- TGI [39]: > 25 µM
- GI50 [40]: 1.03 µM
- TGI [40]: > 25 µM
- GI50 [41]: 12 µM
- TGI [41]: > 25 µM
- GI50 [42]: > 24.1 µM
- TGI [42]: > 25 µM
- GI50 [43]: 11.7 µM
- TGI [43]: > 25 µM
- GI50 [44]: > 25 µM
- TGI [44]: > 25 µM
- GI50 [45]: 16 µM
- TGI [45]: > 25 µM
- GI50 [46]: > 25 µM
- TGI [46]: > 25 µM
- GI50 [47]: > 25 µM
- TGI [47]: > 25 µM
- GI50 [48]: > 19.4 µM
- TGI [48]: > 25 µM
- GI50 [49]: 11 µM
- TGI [49]: > 25 µM
- GI50 [50]: > 25 µM
- TGI [50]: > 25 µM
- GI50 [51]: 1.29 µM
- TGI [51]: > 21 µM
- GI50 [52]: 11.9 µM
- TGI [52]: > 25 µM
- GI50 [53]: > 23.4 µM
- TGI [53]: > 25 µM
- GI50 [54]: > 5.1 µM
- TGI [54]: > 25 µM
- GI50 [55]: > 25 µM
- TGI [55]: > 25 µM
- GI50 [56]: > 25 µM
- TGI [56]: > 25 µM
- GI50 [57]: > 17.1 µM
- TGI [57]: > 25 µM
- GI50 [58]: 8.19 µM
- TGI [58]: > 25 µM
